{"source": "patent US11660280B2", "about": "“Treatment of drug resistant gliomas” (OKLAHOMA MEDICAL RESEARCH FOUNDATION, priority 2017, dated 2023)", "key": {"TGFβ1": {"test_system": "TGFβ1", "assay": "TGFβ1 protein levels (IHC, ELISA) in F98 gliomas", "assay_type": "in vivo, rat", "experimental": "Mice and Treatments. Animal studies were conducted in accordance to the OMRF IACUC (Institutional Animal Care and Use Committee) policies, which follow NIH guidelines. For the F98 rat glioma cell implantation model, F98 cells (10^5 in 10-μ1 volume) were intracerebrally implanted with a stereotaxic device (2 mm lateral and 2 mm anterior to the bregma, and at a 3 mm depth) in a total of 15 Fischer 344 rats (male 200-250 gm). The animals were divided into two groups once tumors reached 10-20 mm^3 in volume (as determined by MRI): OKN-007 treated (n=8) and untreated (UT) (n=7) groups. Rats were treated until tumors reached 200-250 mm^3 in volume or for a total of 4-6 weeks. For the G55 GBM cell implantation model, two-month-old male nude mice (Hsd:Athymic Nude-Foxnlnu mice; Harlan Inc., Indianapolis, IN) were implanted intracerebrally with human G55 xenograft cells (1×10^6) per mL suspended in 4 μL in cell culture media of 1% agarose solution. Once tumors reached 10-15 mm^3 (determined via MRI), mice were either treated daily with OKN-007 in the drinking water (150 mg/kg; 0.20% w/v for a 20 g mouse), or every 3 days with TMZ (30 mg/kg). OKN-007 was dissolved in water and made fresh every 2 days. Water bottles were weighed, and the amount of OKN-007 consumed per mouse was determined. […] The average intake of OKN-007 was approximately 140-150 mg/kg/day/mouse. […]"}, "F98 tumors": {"test_system": "F98 tumors", "assay": "RT-PCR of RNA isolated from F98 untreated and OKN-007-treated tumors", "assay_type": "in vivo, rat", "details": "OKN-007-treated vs untreated F98 tumors", "experimental": "Mice and Treatments. Animal studies were conducted in accordance to the OMRF IACUC (Institutional Animal Care and Use Committee) policies, which follow NIH guidelines. For the F98 rat glioma cell implantation model, F98 cells (10^5 in 10-μ1 volume) were intracerebrally implanted with a stereotaxic device (2 mm lateral and 2 mm anterior to the bregma, and at a 3 mm depth) in a total of 15 Fischer 344 rats (male 200-250 gm). The animals were divided into two groups once tumors reached 10-20 mm^3 in volume (as determined by MRI): OKN-007 treated (n=8) and untreated (UT) (n=7) groups. Rats were treated until tumors reached 200-250 mm^3 in volume or for a total of 4-6 weeks. For the G55 GBM cell implantation model, two-month-old male nude mice (Hsd:Athymic Nude-Foxnlnu mice; Harlan Inc., Indianapolis, IN) were implanted intracerebrally with human G55 xenograft cells (1×10^6) per mL suspended in 4 μL in cell culture media of 1% agarose solution. Once tumors reached 10-15 mm^3 (determined via MRI), mice were either treated daily with OKN-007 in the drinking water (150 mg/kg; 0.20% w/v for a 20 g mouse), or every 3 days with TMZ (30 mg/kg). OKN-007 was dissolved in water and made fresh every 2 days. Water bottles were weighed, and the amount of OKN-007 consumed per mouse was determined. […] The average intake of OKN-007 was approximately 140-150 mg/kg/day/mouse. TMZ was dissolved in 5% DMSO and 5% solutol-15 in sterile saline and administered via gavage. Mice were treated until the tumors reached 100-150 mm^3 or for a total of 4-6 weeks. All groups were stratified to ensure that tumor sizes were similar before initiation of treatment.\nRNA isolation and preparation. For the rat F98 glioma study, all rats were euthanized after the last MRI examination. The brain of each animal was removed, and snap frozen in liquid nitrogen, before storage in a −80° C. freezer. Total RNA from all tumor tissues from all treatment groups was purified with an RNeasy Mini Kit (Qiagen), and quantified by spectrophotometry (Nanodrop). cDNA was synthesized using SuperScript IV Reverse Transcriptase Kit (Invitrogen)."}}, "data": [{"compound": "CC(C)(C)[N+]([O-])=Cc1ccc(S(=O)(=O)O)cc1S(=O)(=O)O", "note": "[OKN-007, 2,4-disulfonyl phenyl tert-butyl nitrone]", "values": [{"measurement": "TGFβ1 protein levels by immunohistochemistry compared to UT tumors", "setting": "TGFβ1; F98 gliomas", "value": "substantially reduced"}, {"measurement": "TGFβ1 protein expression by ELISA compared to UT tumors", "setting": "TGFβ1; F98 tumor tissue lysates, p<0.001", "value": "significantly decreased"}, {"measurement": "RT-PCR fold change in gene expression ADAMTS1", "setting": "F98 tumors; Down-regulated", "value": 3.57, "unit": "fold"}, {"measurement": "RT-PCR fold change in gene expression CD44", "setting": "F98 tumors; Down-regulated", "value": 3.03, "unit": "fold"}, {"measurement": "RT-PCR fold change in gene expression CDH3", "setting": "F98 tumors; Down-regulated", "value": 3.70, "unit": "fold"}, {"measurement": "RT-PCR fold change in gene expression COL1A1", "setting": "F98 tumors; Down-regulated", "value": 2.27, "unit": "fold"}, {"measurement": "RT-PCR fold change in gene expression COL2A1", "setting": "F98 tumors; Down-regulated", "value": 2.33, "unit": "fold"}, {"measurement": "RT-PCR fold change in gene expression COL3A1", "setting": "F98 tumors; Down-regulated", "value": 3.13, "unit": "fold"}, {"measurement": "RT-PCR fold change in gene expression COL4A1", "setting": "F98 tumors; Down-regulated", "value": 2.94, "unit": "fold"}, {"measurement": "RT-PCR fold change in gene expression COL4A2", "setting": "F98 tumors; Down-regulated", "value": 2.63, "unit": "fold"}, {"measurement": "RT-PCR fold change in gene expression COL5A1", "setting": "F98 tumors; Down-regulated", "value": 3.33, "unit": "fold"}, {"measurement": "RT-PCR fold change in gene expression COL6A1", "setting": "F98 tumors; Down-regulated", "value": 2.94, "unit": "fold"}, {"measurement": "RT-PCR fold change in gene expression COL8A1", "setting": "F98 tumors; Down-regulated", "value": 2.33, "unit": "fold"}, {"measurement": "RT-PCR fold change in gene expression CTGF", "setting": "F98 tumors; Down-regulated", "value": 2.63, "unit": "fold"}, {"measurement": "RT-PCR fold change in gene expression ECM1", "setting": "F98 tumors; Down-regulated", "value": 2.86, "unit": "fold"}, {"measurement": "RT-PCR fold change in gene expression EMILIN1", "setting": "F98 tumors; Down-regulated", "value": 2.27, "unit": "fold"}, {"measurement": "RT-PCR fold change in gene expression FN1", "setting": "F98 tumors; Down-regulated", "value": 2.63, "unit": "fold"}, {"measurement": "RT-PCR fold change in gene expression ITAD", "setting": "F98 tumors; Down-regulated", "value": 2.38, "unit": "fold"}, {"measurement": "RT-PCR fold change in gene expression ITGA2", "setting": "F98 tumors; Down-regulated", "value": 3.7, "unit": "fold"}, {"measurement": "RT-PCR fold change in gene expression ITGB3", "setting": "F98 tumors; Down-regulated", "value": 2.13, "unit": "fold"}, {"measurement": "RT-PCR fold change in gene expression ITGB4", "setting": "F98 tumors; Down-regulated", "value": 3.70, "unit": "fold"}, {"measurement": "RT-PCR fold change in gene expression LAMC1", "setting": "F98 tumors; Down-regulated", "value": 2.33, "unit": "fold"}, {"measurement": "RT-PCR fold change in gene expression MMP1 A", "setting": "F98 tumors; Down-regulated", "value": 4.17, "unit": "fold"}, {"measurement": "RT-PCR fold change in gene expression MMP2", "setting": "F98 tumors; Down-regulated", "value": 2.86, "unit": "fold"}, {"measurement": "RT-PCR fold change in gene expression MMP3", "setting": "F98 tumors; Down-regulated", "value": 3.85, "unit": "fold"}, {"measurement": "RT-PCR fold change in gene expression MMP7", "setting": "F98 tumors; Down-regulated", "value": 2.86, "unit": "fold"}, {"measurement": "RT-PCR fold change in gene expression MMP8", "setting": "F98 tumors; Down-regulated", "value": 3.85, "unit": "fold"}, {"measurement": "RT-PCR fold change in gene expression MMP9", "setting": "F98 tumors; Down-regulated", "value": 7.14, "unit": "fold"}, {"measurement": "RT-PCR fold change in gene expression MMP12", "setting": "F98 tumors; Down-regulated", "value": 16.67, "unit": "fold"}, {"measurement": "RT-PCR fold change in gene expression MMP13", "setting": "F98 tumors; Down-regulated", "value": 50.00, "unit": "fold"}, {"measurement": "RT-PCR fold change in gene expression MMP14", "setting": "F98 tumors; Down-regulated", "value": 2.86, "unit": "fold"}, {"measurement": "RT-PCR fold change in gene expression POSTN", "setting": "F98 tumors; Down-regulated", "value": 33.33, "unit": "fold"}, {"measurement": "RT-PCR fold change in gene expression RGDC", "setting": "F98 tumors; Down-regulated", "value": 3.45, "unit": "fold"}, {"measurement": "RT-PCR fold change in gene expression SELE", "setting": "F98 tumors; Down-regulated", "value": 2.86, "unit": "fold"}, {"measurement": "RT-PCR fold change in gene expression SELL", "setting": "F98 tumors; Down-regulated", "value": 2.13, "unit": "fold"}, {"measurement": "RT-PCR fold change in gene expression SELP", "setting": "F98 tumors; Down-regulated", "value": 2.13, "unit": "fold"}, {"measurement": "RT-PCR fold change in gene expression SPP1", "setting": "F98 tumors; Down-regulated", "value": 8.33, "unit": "fold"}, {"measurement": "RT-PCR fold change in gene expression TGFBI", "setting": "F98 tumors; Down-regulated", "value": 2.22, "unit": "fold"}, {"measurement": "RT-PCR fold change in gene expression THBS2", "setting": "F98 tumors; Down-regulated", "value": 3.7, "unit": "fold"}, {"measurement": "RT-PCR fold change in gene expression TIMP1", "setting": "F98 tumors; Down-regulated", "value": 3.45, "unit": "fold"}, {"measurement": "RT-PCR fold change in gene expression CDH4", "setting": "F98 tumors; Up-regulated", "value": 4.06, "unit": "fold"}, {"measurement": "RT-PCR fold change in gene expression CNTN1", "setting": "F98 tumors; Up-regulated", "value": 15.03, "unit": "fold"}, {"measurement": "RT-PCR fold change in gene expression HAPLN1", "setting": "F98 tumors; Up-regulated", "value": 3.1, "unit": "fold"}, {"measurement": "RT-PCR fold change in gene expression MMP16", "setting": "F98 tumors; Up-regulated", "value": 4.72, "unit": "fold"}, {"measurement": "RT-PCR fold change in gene expression NCAM2", "setting": "F98 tumors; Up-regulated", "value": 11.63, "unit": "fold"}, {"measurement": "RT-PCR fold change in gene expression SGCE", "setting": "F98 tumors; Up-regulated", "value": 8.06, "unit": "fold"}, {"measurement": "RT-PCR fold change in gene expression SPOC1", "setting": "F98 tumors; Up-regulated", "value": 11.08, "unit": "fold"}, {"measurement": "RT-PCR fold change in gene expression SYT1", "setting": "F98 tumors; Up-regulated", "value": 19.03, "unit": "fold"}, {"measurement": "RT-PCR fold change in gene expression VTN", "setting": "F98 tumors; Up-regulated", "value": 3.03, "unit": "fold"}]}]}
